Legend:
E. coli = experiment: Inhibition of RIND XXXV reduction by E. coli, microtitration plate, fluorescence (Example 2, Table III); format: cell-based, Escherichia coli (ATCC 25922); settings: Escherichia coli, 0.5 h, E. coli (gram -), 37° C., 30 min, read-out: Corrected Percent Inhibition
Description: (§1) gram-negative microorganism Escherichia coli (ATCC 25922), gram-positive microorganism Staphylococcus aureus (ATCC 25923), and Candida albicans yeast cells (ATCC 14053), brain heart infusion broth (BHI) and Sabaroud's dextrose broth (SAB) from Difco Laboratories (Detroit, Michigan, U.S.A.), and Aspergillus flavus (ATCC 20047), a mold from American Type Culture Collection (Rockville, Maryland, U.S.A.).
(§2) E. coli and S. aureus were grown overnight in BHI broth at 37° C. C. albicans and A. flavus were grown overnight at 25° C. in SAB broth with agitation. The cells were harvested by centrifugation, washed and resuspended in 0.05 molar N-2-hydroxyethylpiperazine-N'-2-ethanesulfonic acid (HEPES) buffer (pH 7.8).
(§3) Dispersions containing RIND compounds were prepared by dissolving, for example, RIND VII from Table I above in N,N-dimethylformamide (DMF) at 16 mg compound per ml of solvent. An aliquot (250 μl) of the resulting solution was added to 500 μl of TRITON X-100 surfactant. This mixture was then added dropwise with stirring to 25 ml of 0.05 molar HEPES buffer. A solution containing a water-compatible RIND compound (for example, RIND XXXV) was prepared by dissolving the compound in N,N-dimethylformamide which had been acidified with 0.1% sulfuric acid (16 mg RIND compound per ml of solvent).
(§4) A composition was prepared from the following components: 100 μl RIND XXXV solution (16 mg RIND compound per ml of acidified N,N-dimethylformamide), 200 μl glucose solution (10% in water), 200 μl trimethyl-1,4-benzoquinone ETA solution (1.5 mg/ml methanol) and 10 ml HEPES buffer.
(§5) Test solutions were prepared using the following reagents: 50 μl HEPES buffer, 50 μl filipin polyene antibiotic (12.5 mg/ml dimethylsulfoxide)(serial dilutions of buffer and antibiotic solutions were performed to obtain various antibiotic concentrations), 50 μl of the appropriate cell suspensions, that is, E. coli (about 10^8 cells/ml), S. aureus (about 10^8 cells/ml), C. albicans (about 10^7 cells/ml) and A. flavus, and […] of the RIND composition described above.
(§6) Control solutions were prepared as described in Example 1. Relative fluorescence was measured using a Dynatech MICROFLUOR Reader (Dynatech Laboratories, Alexandria, Virginia) modified to read at excitation 540 nm and emission 620 nm, at zero time and after incubation at 37° C. for 30 minutes. The change in relative fluorescence was then determined as the difference of the two values.

C. albicans = experiment: Inhibition of RIND IX reduction by C. albicans (yeast) in solution (Example 1, Table II); format: cell-based, Candida albicans (ATCC 14053); settings: Method 2 (antibiotic preincubated with cells 37° C., 30 min), 635 nm
Description: The following materials were used in this example: stock solutions of RIND IX compound dispersion prepared as described above, glucose (10% in water), trimethyl-1,4-benzoquinone ETA (1.5 mg/ml methanol), and the antibiotics (25 mg/ml in dimethyl sulfoxide, except that filipin was 12.5 mg/ml of solvent). Bacteria and yeast were grown as described above. The approximate final cell concentrations in the assay mixture were 4.2×10^8 cells/ml of E. coli, 7.1×10^8 cells/ml of S. aureus, and 7×10^5 of C. albicans.
Test solutions were prepared by adding in order: 1.2 ml of HEPES buffer, 50 μl glucose solution, 1.5 ml of RIND IX dispersion, 100 μl of antibiotic solution, 100 μl of cell suspension and 25 μl of ETA solution. Cell control solutions contained all reagents except antibiotics. Background controls consisted of both buffer and solution controls. The buffer control contained all reagents except antibiotics and cells. The solution control contained all reagents except cells. Optical density readings (OD) were measured at 635 nm at 0 minutes and after incubation at 37° C. for 30 minutes for test and Control solutions, and the change in density (ΔOD) was determined. […] The corrected percent inhibition is calculated by dividing the difference between the ΔOD obtained from the Control without antibiotic and the ΔOD of the test solution, by ΔOD of the Control without antibiotic. All readings were corrected by subtracting readings of the appropriate background control.
Solutions containing 2.9 ml HEPES, 50 μl of the antibiotic solution, and 100 μl cell solution were incubated at 37° C. for 30 minutes, centrifuged for 10 minutes and decanted. The resulting pellet was then treated with 1.4 ml HEPES, 50 μl glucose solution, 1.5 ml RIND IX dispersion and 25 μl ETA solution, mixed well and the optical densities recorded as described above in Method 1. The corrected percent inhibition data was calculated as described in Method 1 above.

S. aureus [1] = experiment: Inhibition of RIND XXXV reduction by S. aureus, microtitration plate, fluorescence (Example 2, Table III); format: cell-based, Staphylococcus aureus (ATCC 25923); settings: Staphylococcus aureus, 0.5 h, S. aureus (gram +), 37° C., 30 min, read-out: Corrected Percent Inhibition
Description: as §1, §2, §3, §4, §5, §6

A. flavus = experiment: Inhibition of RIND XXXV reduction by A. flavus (mold), microtitration plate, fluorescence (Example 2, Table III); format: cell-based, Aspergillus flavus (ATCC 20047); settings: Aspergillus flavus, 0.5 h, 37° C., 30 min, read-out: Corrected Percent Inhibition
Description: as §1, §2, §3, §4, §5, §6

S. aureus [2] = experiment: Inhibition of MTT tetrazolium salt reduction by S. aureus, microtitration plate (Example 3, Table IV); format: cell-based, Staphylococcus aureus (ATCC 25923); settings: Staphylococcus aureus, 0.5 h, S. aureus (gram +), 540 nm, 37° C., 30 min, read-out: Corrected Percent Inhibition
Description: as §1, §2
The differentiations of yeast and mold from bacteria were carried out in microtitration plates. The cell suspensions used were like those described in Example 2. The reducible compound used was 3-(4,5-dimethyl-2-thiazolyl)-2,5-diphenyl-2H-tetrazolium bromide (MTT). A composition containing MTT was prepared with the following components: 200 μl MTT solution (5 mg/ml methanol), 200 μl glucose solution (10% glucose in water), 200 μl trimethyl-1,4-benzoquinone ETA and 12 ml of HEPES buffer (0.05 molar, pH 7.8).
as §5, with “components:” for “reagents:”, “suspension, i.e.” for “suspensions, that is,”, “MTT” for “RIND”, “noted” for “described”, “above. Cell Controls contained all reagents except the antibiotic. Background was measured with buffer. Solution Controls contained all reagents except cells.” for “above.”
Optical density measurements were made at 540 nm using a commercially available spectrophotometer, and the change in optical density (ΔOD) was determined after 30 minutes at 37° C. […] It is apparent that the concentration effective for differentiation of yeast is different than for mold. However, it is well within the skill of a worker in the art to determine the appropriate concentration for a given test.

CCCCC[C@@H](O)[C@H]1C(=O)O[C@H](C)[C@@H](O)/C=C/C=C/C=C/C=C/C=C(\C)[C@@H](O)C[C@H](O)C[C@H](O)C[C@H](O)C[C@H](O)C[C@H](O)C[C@@H]1O [Filipin, filipin]
inhibition at 260 µg/mL (E. coli; 0.26 mg/ml): 0% | inhibition at 520 µg/mL (E. coli; 0.52 mg/ml): 0% | inhibition at 1040 µg/mL (E. coli; 1.04 mg/ml): 2% | inhibition at 2080 µg/mL (E. coli; 2.08 mg/ml): 17.6% | Corrected % Inhibition (C. albicans): 97.5% | inhibition at 260 µg/mL (S. aureus [1]; 0.26 mg/ml): 7.5% | inhibition at 520 µg/mL (S. aureus [1]; 0.52 mg/ml): 8.6% | inhibition at 1040 µg/mL (S. aureus [1]; 1.04 mg/ml): 14.8% | inhibition at 2080 µg/mL (S. aureus [1]; 2.08 mg/ml): 18.2% | inhibition at 260 µg/mL (A. flavus; 0.26 mg/ml): 31.9% | inhibition at 520 µg/mL (A. flavus; 0.52 mg/ml): 42.5% | inhibition at 1040 µg/mL (A. flavus; 1.04 mg/ml): 49.8% | inhibition at 2080 µg/mL (A. flavus; 2.08 mg/ml): 64.9% | inhibition at 260 µg/mL (S. aureus [2]; 0.26 mg/ml): 0% | inhibition at 520 µg/mL (S. aureus [2]; 0.52 mg/ml): 0% | inhibition at 1040 µg/mL (S. aureus [2]; 1.04 mg/ml): 0% | inhibition at 2080 µg/mL (S. aureus [2]; 2.08 mg/ml): 0%

From patent US4888287A, “Rapid differentiation of fungi from bacteria using polyene antibiotics” (Eastman Kodak Company, priority 1986, dated 1989)
